pIC50, pKi: −log10 of the molar value. Blank lines part the entries; values can stand above or below the molecule they belong to.
Experiments:
Adenosine receptor A1 = biological target: T1, Adenosine receptor A1 (Homo sapiens, UniProt P30542); test: biochemical
T1 sequence (P30542 whole entry): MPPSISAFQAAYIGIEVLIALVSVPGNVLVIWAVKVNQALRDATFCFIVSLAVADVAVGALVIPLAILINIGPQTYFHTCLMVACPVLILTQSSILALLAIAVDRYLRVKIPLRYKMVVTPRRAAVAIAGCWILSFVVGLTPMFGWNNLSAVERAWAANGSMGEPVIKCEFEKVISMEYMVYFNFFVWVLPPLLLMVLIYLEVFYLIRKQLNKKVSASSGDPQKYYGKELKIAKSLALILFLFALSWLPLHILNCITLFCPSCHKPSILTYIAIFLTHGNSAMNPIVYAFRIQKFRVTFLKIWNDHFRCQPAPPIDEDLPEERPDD
Description: Displacement of [3H]- DPCPX binding at human Adenosine A1 receptor expressed in CHO cells

Adenosine receptor A2b [1] = biological target: T2, Adenosine receptor A2b (Homo sapiens, UniProt P29275); test: biochemical
T2 sequence (P29275 whole entry): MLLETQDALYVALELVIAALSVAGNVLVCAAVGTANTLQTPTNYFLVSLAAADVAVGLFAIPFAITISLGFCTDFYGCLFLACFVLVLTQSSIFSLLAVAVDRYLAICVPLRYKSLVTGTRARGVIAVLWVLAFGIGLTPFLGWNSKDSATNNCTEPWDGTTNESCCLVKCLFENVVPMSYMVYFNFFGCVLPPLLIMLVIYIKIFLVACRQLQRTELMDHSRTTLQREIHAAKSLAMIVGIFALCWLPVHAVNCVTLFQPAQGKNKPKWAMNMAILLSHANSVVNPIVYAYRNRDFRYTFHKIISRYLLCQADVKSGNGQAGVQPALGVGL
Description: (§1) Displacement of [3H]- DPCPX from human adenosine A2B receptor expressed in HEK293 cells

Adenosine receptor A3 [2] = biological target: T3, Adenosine receptor A3 (Homo sapiens, UniProt P0DMS8); test: biochemical
T3 sequence (P0DMS8 whole entry): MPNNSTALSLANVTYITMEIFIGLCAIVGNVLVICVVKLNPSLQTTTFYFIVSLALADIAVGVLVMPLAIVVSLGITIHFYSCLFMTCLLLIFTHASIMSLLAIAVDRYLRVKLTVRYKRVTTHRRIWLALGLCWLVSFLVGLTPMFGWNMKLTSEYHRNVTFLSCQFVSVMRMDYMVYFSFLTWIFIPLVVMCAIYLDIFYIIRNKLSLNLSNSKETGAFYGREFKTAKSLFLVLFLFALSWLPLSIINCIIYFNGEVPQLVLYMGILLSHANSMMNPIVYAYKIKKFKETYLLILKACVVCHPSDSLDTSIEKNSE
Description: (§2) Displacement of [3H]- MRE 308F20 binding from human Adenosine A3 receptor expressed in CHO cells

Adenosine receptor A2a [3] = biological target: T4, Adenosine receptor A2a (Homo sapiens, UniProt P29274); test: biochemical
Adenosine receptor A2a [4] = biological target: T4, Adenosine receptor A2a
Adenosine receptor A3 [5] = biological target: T3, Adenosine receptor A3
Adenosine receptor A2b [6] = biological target: T2, Adenosine receptor A2b; test: biochemical; remark: listed apart in the source
Description: as §1

Adenosine receptor A2a [7] = biological target: T4, Adenosine receptor A2a; test: biochemical; remark: listed apart in the source
Adenosine receptor A3 [8] = biological target: T3, Adenosine receptor A3; details: cho
Description: as §2

Adenosine receptor A2b [9] = biological target: T5, Adenosine receptor A2b (Rattus norvegicus, UniProt P29276)
T5 sequence (P29276 whole entry): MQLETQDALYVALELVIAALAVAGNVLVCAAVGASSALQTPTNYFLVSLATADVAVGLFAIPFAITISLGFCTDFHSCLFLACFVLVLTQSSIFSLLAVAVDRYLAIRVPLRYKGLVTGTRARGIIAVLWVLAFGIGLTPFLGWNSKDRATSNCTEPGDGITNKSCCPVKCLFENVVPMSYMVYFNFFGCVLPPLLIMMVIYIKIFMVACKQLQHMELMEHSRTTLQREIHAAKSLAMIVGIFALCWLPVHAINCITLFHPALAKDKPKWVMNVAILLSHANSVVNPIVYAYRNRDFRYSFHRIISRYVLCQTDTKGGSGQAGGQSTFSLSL

T4 sequence (P29274 whole entry): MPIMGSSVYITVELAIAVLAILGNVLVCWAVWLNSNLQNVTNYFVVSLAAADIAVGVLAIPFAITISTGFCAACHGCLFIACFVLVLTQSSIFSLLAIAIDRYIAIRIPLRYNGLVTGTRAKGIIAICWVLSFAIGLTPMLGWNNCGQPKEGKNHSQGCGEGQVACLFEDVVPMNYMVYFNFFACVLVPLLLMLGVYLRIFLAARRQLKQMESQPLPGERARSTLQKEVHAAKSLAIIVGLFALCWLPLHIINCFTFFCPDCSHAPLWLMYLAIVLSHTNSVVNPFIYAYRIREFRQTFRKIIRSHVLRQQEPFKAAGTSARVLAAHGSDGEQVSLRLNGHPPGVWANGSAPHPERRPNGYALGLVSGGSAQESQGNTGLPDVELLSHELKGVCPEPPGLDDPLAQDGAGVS

SMILES: CSc1c2c(nc(N)n3nc(-c4ccc(CN5CCN(C)CC5)o4)nc23)nn1C
- pKi (Adenosine receptor A1): < 6.00
- pKi (Adenosine receptor A2b [1]): < 6.00
- pKi (Adenosine receptor A3 [2]): < 6.00
- pKi (Adenosine receptor A2a [3]): < 6.00

SMILES: Nc1nc2c(cnn2CCc2ccccc2)c2nc(-c3ccccc3)nn12
- pKi (Adenosine receptor A1): 6.63
- pKi (Adenosine receptor A2b [6]): < 6.00
- pKi (Adenosine receptor A3 [2]): < 6.00
- pKi (Adenosine receptor A2a [3]): < 6.00

SMILES: CSc1c2c(nc(N)n3nc(-c4ccco4)nc23)nn1CCCc1ccccc1
- pKi (Adenosine receptor A3 [2]): < 6.00

SMILES: CN1CCN(Cc2ccc(-c3nc4c5cnn(CCc6ccccc6)c5nc(N)n4n3)o2)CC1
- pKi (Adenosine receptor A1): < 6.00
- pKi (Adenosine receptor A2b [1]): < 6.00
- pKi (Adenosine receptor A3 [2]): < 6.00
- pKi (Adenosine receptor A2a [7]): < 6.00

SMILES: CN1CCN(c2c3c(nc(N)n4nc(-c5ccco5)nc34)nn2C)CC1 [listing 1 of 2 here]
- pKi (Adenosine receptor A3 [2]): < 6.00

SMILES: CN1CCN(c2c3c(nc(N)n4nc(-c5ccco5)nc34)nn2C)CC1 [listing 2 of 2 here]
- pKi (Adenosine receptor A3 [8]): < 6.00

SMILES: COc1ccc(NC(=O)Nc2nc3nn(C)c(SC)c3c3nc(-c4ccco4)nn23)cc1
- pIC50 (Adenosine receptor A3 [5]): 6.09

SMILES: Nc1nc2c(cnn2CCc2ccccc2)c2nc(-c3ccco3)nn12 [SCH-58261]
- pKi (Adenosine receptor A2b [9]): < 6.00

SMILES: Nc1nc2c(cnn2CCc2ccccc2)c2nc(-c3ccc(CN4CCOCC4)o3)nn12
- pKi (Adenosine receptor A1): < 6.00
- pKi (Adenosine receptor A2b [1]): < 6.00
- pKi (Adenosine receptor A3 [2]): < 6.00
- pKi (Adenosine receptor A2a [7]): < 6.00

SMILES: CSc1c2c(nc(NC(=O)Cc3ccc4c(c3)OCO4)n3nc(-c4ccco4)nc23)nn1C
- pIC50 (Adenosine receptor A3 [5]): 6.33

The next lines start with the values.

- pIC50 (Adenosine receptor A2a [4]): 8.21
- pIC50 (Adenosine receptor A3 [5]): 6.73
SMILES: CSc1c2c(nc(N)n3nc(-c4ccco4)nc23)nn1C

- pIC50 (Adenosine receptor A2a [4]): 7.83
- pIC50 (Adenosine receptor A3 [5]): 6.07
SMILES: CCCSc1c2c(nc(N)n3nc(-c4ccco4)nc23)nn1C

- pKi (Adenosine receptor A2b [1]): 6.74
- pKi (Adenosine receptor A3 [2]): < 6.00
SMILES: CSc1c2c(nc(NC(=O)Cc3ccc(CC(C)C)cc3)n3nc(-c4ccco4)nc23)nn1C

- pKi (Adenosine receptor A3 [2]): < 6.00
SMILES: COc1ccc(CC(=O)Nc2nc3nn(C)c(SC)c3c3nc(-c4ccco4)nn23)cc1

- pKi (Adenosine receptor A3 [2]): 7.85
- pKi (Adenosine receptor A2a [3]): 7.68
SMILES: CCNc1c2c(nc(NC(=O)Nc3ccc(OC)cc3)n3nc(-c4ccco4)nc23)nn1C [listing 1 of 2 here]

- pKi (Adenosine receptor A2b [1]): < 6.00
- pKi (Adenosine receptor A2a [3]): < 6.00
SMILES: Cn1nc2nc(N)n3nc(-c4ccco4)nc3c2c1Nc1ccc(O)cc1

- pIC50 (Adenosine receptor A3 [5]): 6.99
SMILES: CCNc1c2c(nc(N)n3nc(-c4ccco4)nc23)nn1C

- pKi (Adenosine receptor A3 [2]): < 6.00
- pKi (Adenosine receptor A2a [3]): < 6.00
SMILES: COc1ccc(NC(=O)Nc2nc3nn(C)c(N4CCN(C)CC4)c3c3nc(-c4ccco4)nn23)cc1

- pIC50 (Adenosine receptor A2a [4]): 7.21
- pIC50 (Adenosine receptor A3 [5]): 7.35
SMILES: CCNc1c2c(nc(NC(=O)Nc3ccc(OC)cc3)n3nc(-c4ccco4)nc23)nn1C [listing 2 of 2 here]
